Paper PMC6150310, “Synthesis and Structure–Activity Relationships of 4-Morpholino-7,8-Dihydro-5H-Thiopyrano[4,3-d]pyrimidine Derivatives Bearing Pyrazoline Scaffold” (Molecules : A Journal of Synthetic Chemistry and Natural …, 2017)

Assays:
PC-3 cell line = assay: MTT cytotoxicity assay, PC-3; format: cell-based; conditions: Homo sapiens, PC-3, 72 h, average of two determinations, NA = No Activity
Description: (§1) Taking GDC-0941 as the reference compound, the target compounds (7a–l and 8a–l) were evaluated for the cytotoxicity against four cancer cell lines A549, PC-3, MCF-7, and HepG2 by 3-(4,5-dimethylthiazolyl-2)-2,5-diphenyltetrazolium bromide (MTT) cell proliferation assay. In order to confirm the types of target compound, selective or mixed-type inhibitors, the selected compound, 8d, was measured for its PI3Kα kinase inhibitory activity together with reference compounds GDC-0941 and PI103 via the Kinase-Glo® Luminescent […] assay. The results expressed as inhibition rates or IC50 values are summarized in Table 1 and Table 2, where the values are the average of at least two independent experiments.
(§2) The in vitro cytotoxic activities of Compounds 7a–l and 8a–l were evaluated with A549, PC-3, HepG2, and MCF-7 cell lines by the standard MTT assay, with GDC-0941 as a positive control. The cancer cell lines were cultured in minimum essential medium (MEM) supplement with 10% fetal bovine serum (FBS). Approximately, 4 × 10^3 cells, suspended in MEM medium, were plated onto each well of a 96-well plate and incubated in 5% CO2 at 37 °C for 24 h. The test compounds at the indicated final concentrations were added to the culture medium, and cell cultures continued for 72 h. Fresh MTT was added to each well at a terminal concentration of […] and incubated with cells at 37 °C for 4 h. The formazan crystals were dissolved in 100 µL of DMSO in each well, and the absorbency at 492 nm (for absorbance of MTT formazan) and 630 nm (for the reference wavelength) was measured with an enzyme linked immunosorbent assay (ELISA) reader (MR-96A Mindray Elisa Microplate Reader, Guangzhou, China). All compounds were tested three times in each of the cell lines. The results expressed as inhibition rates or IC50 were the averages of two determinations and calculated using the Bacus Laboratories Inc. Slide Scanner (Bliss) software (the Bacus Laboratories Inc. Slide Scanner (BLISS) system, Lombard, IL, USA).

A549 cell line = assay: MTT cytotoxicity assay, A549; format: cell-based; conditions: Homo sapiens, A549, 72 h, average of two determinations, NA = No Activity
Description: as §1, §2

MCF-7 cell line = assay: MTT cytotoxicity assay, MCF-7; format: cell-based; conditions: Homo sapiens, MCF7, 72 h, average of two determinations, NA = No Activity
Description: as §1, §2

HepG2 cell line = assay: MTT cytotoxicity assay, HepG2; format: cell-based; conditions: Homo sapiens, HepG2, 72 h, average of two determinations, NA = No Activity
Description: as §1, §2

[1] = system: four cancer cell lines (A549, PC-3, MCF-7, HepG2); assay: MTT cytotoxicity assay, four cancer cell lines together; format: cell-based; conditions: Homo sapiens, range over A549, PC-3, MCF-7, HepG2, read-out: IC50 values against four cancer cell lines
Description: as §1
The in vitro cytotoxic activities of Compounds 7a–l and 8a–l were evaluated with A549, PC-3, HepG2, and MCF-7 cell lines by the standard MTT assay, with GDC-0941 as a positive control. The cancer cell lines were cultured in minimum essential medium (MEM) supplement with 10% fetal bovine serum (FBS). […] The formazan crystals were dissolved in 100 µL of DMSO in each well, and the absorbency at 492 nm (for absorbance of MTT formazan) and 630 nm (for the reference wavelength) was measured with an enzyme linked immunosorbent assay (ELISA) reader (MR-96A Mindray Elisa Microplate Reader, Guangzhou, China). […]

PI3Kα = PI3Kα (Homo sapiens, UniProt P42336); assay: PI3Kα Kinase-Glo Luminescent Kinase Assay; format: biochemical; conditions: 1 µM ATP, 60 min, average of two determinations
Chain of PI3Kα (P42336 whole entry): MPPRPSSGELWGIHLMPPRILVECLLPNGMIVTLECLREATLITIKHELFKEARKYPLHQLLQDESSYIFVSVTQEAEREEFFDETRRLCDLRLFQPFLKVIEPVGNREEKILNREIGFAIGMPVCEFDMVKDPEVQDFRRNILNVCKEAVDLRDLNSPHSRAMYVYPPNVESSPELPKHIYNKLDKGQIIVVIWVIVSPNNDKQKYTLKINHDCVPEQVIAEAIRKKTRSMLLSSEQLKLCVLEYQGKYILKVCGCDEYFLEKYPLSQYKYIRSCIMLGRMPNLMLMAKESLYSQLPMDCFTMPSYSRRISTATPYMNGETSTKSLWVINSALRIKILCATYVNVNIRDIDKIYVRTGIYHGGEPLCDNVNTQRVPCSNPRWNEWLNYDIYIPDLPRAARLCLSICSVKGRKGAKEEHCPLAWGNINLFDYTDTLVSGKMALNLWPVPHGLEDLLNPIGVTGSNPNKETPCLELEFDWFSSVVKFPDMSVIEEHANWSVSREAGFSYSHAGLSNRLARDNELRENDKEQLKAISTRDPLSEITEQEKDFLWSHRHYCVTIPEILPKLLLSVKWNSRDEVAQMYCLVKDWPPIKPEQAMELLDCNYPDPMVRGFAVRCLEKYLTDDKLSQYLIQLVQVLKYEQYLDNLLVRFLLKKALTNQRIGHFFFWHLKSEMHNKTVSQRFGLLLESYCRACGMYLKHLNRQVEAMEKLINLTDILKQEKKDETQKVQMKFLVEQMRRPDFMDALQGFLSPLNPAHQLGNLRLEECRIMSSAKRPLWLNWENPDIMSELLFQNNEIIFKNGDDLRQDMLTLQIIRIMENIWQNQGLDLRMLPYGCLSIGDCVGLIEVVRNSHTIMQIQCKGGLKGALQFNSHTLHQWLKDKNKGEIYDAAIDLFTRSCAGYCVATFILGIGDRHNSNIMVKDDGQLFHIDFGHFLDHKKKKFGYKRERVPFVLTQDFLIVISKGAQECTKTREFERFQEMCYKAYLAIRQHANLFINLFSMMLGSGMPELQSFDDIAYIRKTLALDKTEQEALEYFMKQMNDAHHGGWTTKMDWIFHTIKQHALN
Chain of PI3Kα (P27986 whole entry partner): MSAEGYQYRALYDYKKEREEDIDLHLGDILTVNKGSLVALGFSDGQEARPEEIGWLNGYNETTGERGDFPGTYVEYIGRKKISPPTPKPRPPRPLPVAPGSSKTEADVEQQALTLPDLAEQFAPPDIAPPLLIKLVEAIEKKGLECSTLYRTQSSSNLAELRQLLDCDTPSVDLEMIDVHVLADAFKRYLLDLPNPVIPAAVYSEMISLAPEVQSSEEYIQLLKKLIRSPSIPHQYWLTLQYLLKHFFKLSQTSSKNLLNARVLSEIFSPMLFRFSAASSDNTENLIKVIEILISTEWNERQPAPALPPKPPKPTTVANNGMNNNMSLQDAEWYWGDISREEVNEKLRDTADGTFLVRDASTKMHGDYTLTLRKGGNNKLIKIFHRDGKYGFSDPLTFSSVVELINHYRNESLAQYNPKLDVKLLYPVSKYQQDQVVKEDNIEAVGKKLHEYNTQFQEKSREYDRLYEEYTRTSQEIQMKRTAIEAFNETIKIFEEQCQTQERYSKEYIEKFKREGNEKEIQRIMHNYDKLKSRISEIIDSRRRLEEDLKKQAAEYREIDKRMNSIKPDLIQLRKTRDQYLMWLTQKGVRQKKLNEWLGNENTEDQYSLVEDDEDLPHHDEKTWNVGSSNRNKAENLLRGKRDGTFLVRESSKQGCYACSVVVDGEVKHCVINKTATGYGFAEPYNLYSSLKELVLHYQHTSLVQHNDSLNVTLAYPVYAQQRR

| Structure (SMILES) | IC50 (PC-3 cell line) [µM] | melting point [°C] | IC50 (A549 cell line) [µM] | IC50 (MCF-7 cell line) [µM] | IC50 (HepG2 cell line) [µM] | IC50 [1] [µM] | IC50 (PI3Kα) [µM] |
| --- | --- | --- | --- | --- | --- | --- | --- |
| COc1ccc(C2=NN(c3nc4c(c(N5CCOCC5)n3)CSCC4)[C@@H](c3ccc(F)cc3)C2)cc1 [Compound 7h, (R)-4-(2-(5-(4-Fluorophenyl)-3-(4-methoxyphenyl)-4,5-dihydro-1H-pyrazol-1-yl)-7,8-dihydro-5H-thiopyrano[4,3-d]pyrimidin-4-yl)morpholine] | 29.8 ± 0.89 | 116 to 118 | 26.7 ± 0.88 | 30.3 ± 0.88 | 20.5 ± 0.67 |  |  |
| Fc1ccc(C2=NN(c3nc4c(c(N5CCOCC5)n3)CSCC4)[C@@H](c3ccc(Cl)c(Cl)c3)C2)cc1 [Compound 7d, (R)-4-(2-(5-(3,4-Dichlorophenyl)-3-(4-fluorophenyl)-4,5-dihydro-1H-pyrazol-1-yl)-7,8-dihydro-5H-thiopyrano[4,3-d]pyrimidin-4-yl)morpholine] | 8.91 ± 0.72 | 207 to 211 | 6.02 ± 1.22 | 10.3 ± 0.94 | 8.39 ± 1.91 |  |  |
| O=S1(=O)CCc2nc(N3N=C(c4ccc(F)cc4)C[C@@H]3c3ccc(Cl)c(Cl)c3)nc(N3CCOCC3)c2C1 (racemic) [Compound 8d, (R)-2-(5-(3,4-Dichlorophenyl)-3-(4-fluorophenyl)-4,5-dihydro-1H-pyrazol-1-yl)-4-morpholino-7,8-dihydro-5H-thiopyrano[4,3-d]pyrimidine 6,6-dioxide] |  |  |  | 10.3 ± 0.94 |  | 6.02 to 10.3 | 8.38 ± 0.21 |
| Clc1ccc([C@H]2CC(c3ccc(Br)cc3)=NN2c2nc3c(c(N4CCOCC4)n2)CSCC3)cc1Cl [Compound 7c, (R)-4-(2-(3-(4-Bromophenyl)-5-(3,4-dichlorophenyl)-4,5-dihydro-1H-pyrazol-1-yl)-7,8-dihydro-5H-thiopyrano[4,3-d]pyrimidin-4-yl)morpholine] | 12.9 ± 1.56 | 185 to 186 | 13 ± 0.42 | 22.98 ± 0.19 | 15.36 ± 0.03 |  |  |
| O=S1(=O)CCc2nc(N3N=C(c4ccccc4)C[C@@H]3c3ccc(Br)cc3)nc(N3CCOCC3)c2C1 [Compound 8k, (R)-2-(5-(4-Bromophenyl)-3-phenyl-4,5-dihydro-1H-pyrazol-1-yl)-4-morpholino-7,8-dihydro-5H-thiopyrano[4,3-d]pyrimidine 6,6-dioxide] | 33.5 ± 1.67 | 163 to 167 | 35 ± 0.47 | 32.6 ± 0.49 | 35.49 ± 0.33 |  |  |
| Fc1ccc(C2=NN(c3nc4c(c(N5CCOCC5)n3)CSCC4)[C@@H](c3ccc(F)cc3)C2)cc1 [Compound 7g, (R)-4-(2-(3,5-Bis(4-fluorophenyl)-4,5-dihydro-1H-pyrazol-1-yl)-7,8-dihydro-5H-thiopyrano[4,3-d]pyrimidin-4-yl)morpholine] | 15.2 ± 1.54 | 144 to 146 | 16.9 ± 0.66 | 26.4 ± 0.37 | 20.3 ± 0.37 |  |  |
| c1ccc(C2=NN(c3nc4c(c(N5CCOCC5)n3)CSCC4)[C@@H](c3ccccc3)C2)cc1 [Compound 7a, (R)-4-(2-(3,5-Diphenyl-4,5-dihydro-1H-pyrazol-1-yl)-7,8-dihydro-5H-thiopyrano[4,3-d]pyrimidin-4-yl)morpholine] | 28.8 ± 2.4 | 139 to 142 | 21.7 ± 0.76 | 21.7 ± 0.78 | 20.3 ± 1.15 |  |  |
